From patent US10479786B2, “Protein kinase inhibitors” (Princeton Drug Discovery Inc, priority 2016, dated 2019)

Columns and labels:
DDR2 = molecular target: T1, DDR2 (Homo sapiens, UniProt Q16832); assay: Off-chip Mobility Shift Assay, kinase inhibition; type: biochemical; settings: at 10 nM; recombinant DDR2; read-out: inhibition
T1 construct: purchased Carna Biosciences, Inc
T1 sequence (Q16832 22-855): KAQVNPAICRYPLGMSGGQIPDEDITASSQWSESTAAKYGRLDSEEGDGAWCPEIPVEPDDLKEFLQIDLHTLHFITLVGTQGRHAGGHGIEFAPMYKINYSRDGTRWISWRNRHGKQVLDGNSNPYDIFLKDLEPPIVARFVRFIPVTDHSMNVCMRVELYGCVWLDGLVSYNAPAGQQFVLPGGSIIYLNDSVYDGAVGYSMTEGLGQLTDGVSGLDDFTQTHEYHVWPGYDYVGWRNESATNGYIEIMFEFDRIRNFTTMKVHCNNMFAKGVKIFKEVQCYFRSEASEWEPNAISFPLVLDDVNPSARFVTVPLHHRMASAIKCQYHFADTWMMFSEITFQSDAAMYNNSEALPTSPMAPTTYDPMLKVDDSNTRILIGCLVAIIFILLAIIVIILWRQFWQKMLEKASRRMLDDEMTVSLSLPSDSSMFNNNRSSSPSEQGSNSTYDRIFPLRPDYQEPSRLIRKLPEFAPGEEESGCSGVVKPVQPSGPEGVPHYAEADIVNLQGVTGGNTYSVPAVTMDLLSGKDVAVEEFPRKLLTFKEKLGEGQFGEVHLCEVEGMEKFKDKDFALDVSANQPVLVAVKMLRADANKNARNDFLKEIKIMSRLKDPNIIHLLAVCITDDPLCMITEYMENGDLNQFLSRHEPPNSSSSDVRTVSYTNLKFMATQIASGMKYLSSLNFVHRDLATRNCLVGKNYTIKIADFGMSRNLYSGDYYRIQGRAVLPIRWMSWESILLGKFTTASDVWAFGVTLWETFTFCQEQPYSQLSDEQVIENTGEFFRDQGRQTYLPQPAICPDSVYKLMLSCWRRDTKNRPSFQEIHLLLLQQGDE

PDGFRβ = molecular target: T2, PDGFRβ (Homo sapiens, UniProt P09619); assay: Off-chip Mobility Shift Assay, kinase inhibition; type: biochemical; settings: at 10 nM; recombinant PDGFRβ; read-out: inhibition
T2 construct: purchased Carna Biosciences, Inc

PDGFRα = molecular target: T3, PDGFRα (Homo sapiens, UniProt P16234); assay: Off-chip Mobility Shift Assay, kinase inhibition; type: biochemical; settings: at 10 nM; recombinant PDGFRα; read-out: inhibition
T3 construct: purchased Carna Biosciences, Inc

BTK = molecular target: T4, BTK (Homo sapiens, UniProt Q06187); assay: Off-chip Mobility Shift Assay, kinase inhibition; type: biochemical; settings: recombinant BTK; for inhibition at 0.001 µM: at 1 nM; for inhibition at 0.01 µM: at 10 nM
T4 construct: purchased Carna Biosciences, Inc

HCK = molecular target: T5, HCK (Homo sapiens, UniProt P08631); assay: Off-chip Mobility Shift Assay, kinase inhibition; type: biochemical; settings: recombinant HCK; for inhibition at 0.001 µM: at 1 nM; for inhibition at 0.01 µM: at 10 nM, read-out: inhibition
T5 construct: purchased Carna Biosciences, Inc

BLK = molecular target: T6, BLK (Homo sapiens, UniProt P51451); assay: Off-chip Mobility Shift Assay, kinase inhibition; type: biochemical; settings: at 10 nM; recombinant BLK
T6 construct: purchased Carna Biosciences, Inc

BMX = molecular target: T7, BMX (Homo sapiens, UniProt P51813); assay: Off-chip Mobility Shift Assay, kinase inhibition; type: biochemical; settings: recombinant BMX; for inhibition at 0.001 µM: at 1 nM; for inhibition at 0.01 µM: at 10 nM
T7 construct: purchased Carna Biosciences, Inc
T7 sequence (P51813 1-675): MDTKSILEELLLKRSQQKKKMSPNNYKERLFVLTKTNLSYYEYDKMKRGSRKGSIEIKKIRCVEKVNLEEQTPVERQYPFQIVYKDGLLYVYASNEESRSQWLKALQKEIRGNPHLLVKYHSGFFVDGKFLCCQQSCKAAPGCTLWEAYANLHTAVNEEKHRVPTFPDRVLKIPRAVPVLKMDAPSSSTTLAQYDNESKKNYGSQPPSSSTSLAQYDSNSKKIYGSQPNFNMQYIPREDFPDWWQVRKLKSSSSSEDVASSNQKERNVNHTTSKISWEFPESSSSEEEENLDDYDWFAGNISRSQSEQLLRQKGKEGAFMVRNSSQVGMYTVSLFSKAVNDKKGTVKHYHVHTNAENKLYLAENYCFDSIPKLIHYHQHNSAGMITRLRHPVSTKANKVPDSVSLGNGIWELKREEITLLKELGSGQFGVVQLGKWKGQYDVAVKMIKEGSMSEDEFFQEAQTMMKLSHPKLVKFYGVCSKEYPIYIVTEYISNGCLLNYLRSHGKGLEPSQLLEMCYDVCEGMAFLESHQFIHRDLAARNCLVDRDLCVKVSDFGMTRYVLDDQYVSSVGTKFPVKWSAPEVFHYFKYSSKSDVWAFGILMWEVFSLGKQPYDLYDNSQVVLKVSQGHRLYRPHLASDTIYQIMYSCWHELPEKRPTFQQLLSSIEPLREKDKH

SRC = molecular target: T8, SRC (Homo sapiens, UniProt P12931); assay: Off-chip Mobility Shift Assay, kinase inhibition; type: biochemical; settings: recombinant SRC; for inhibition at 0.001 µM: at 1 nM; for inhibition at 0.01 µM: at 10 nM
T8 construct: purchased Carna Biosciences, Inc

LYNa = molecular target: T9, LYNa (Homo sapiens, UniProt P07948); assay: Off-chip Mobility Shift Assay, kinase inhibition; type: biochemical; settings: recombinant LYNa; for inhibition at 0.001 µM: at 1 nM; for inhibition at 0.01 µM: at 10 nM, read-out: inhibition
T9 construct: purchased Carna Biosciences, Inc

LCK = molecular target: T10, LCK (Homo sapiens, UniProt P06239); assay: Off-chip Mobility Shift Assay, kinase inhibition; type: biochemical; settings: recombinant LCK; for inhibition at 0.001 µM: at 1 nM; for inhibition at 0.01 µM: at 10 nM
T10 construct: purchased Carna Biosciences, Inc

ACK = molecular target: T11, ACK (Homo sapiens, UniProt Q07912); assay: Off-chip Mobility Shift Assay, kinase inhibition; type: biochemical; settings: at 10 nM; recombinant ACK
T11 construct: purchased Carna Biosciences, Inc

Mino = assay: Cell inhibition assay (PrestoBlue, 48 h); type: cell-based; settings: Homo sapiens, Mino cells, read-out: IC50, inhibition of growth
FMS = molecular target: T12, FMS (Homo sapiens, UniProt P07333); assay: Off-chip Mobility Shift Assay, kinase inhibition; type: biochemical; settings: at 10 nM; recombinant FMS
T12 construct: purchased Carna Biosciences, Inc

ARG = molecular target: T13, ARG (Homo sapiens, UniProt P42684); assay: Off-chip Mobility Shift Assay, kinase inhibition; type: biochemical; settings: at 10 nM; recombinant ARG; read-out: inhibition
T13 construct: purchased Carna Biosciences, Inc

ABL = molecular target: T14, ABL (Homo sapiens, UniProt P00519); assay: Off-chip Mobility Shift Assay, kinase inhibition; type: biochemical; settings: recombinant ABL; for inhibition at 0.001 µM: at 1 nM; for inhibition at 0.01 µM: at 10 nM
T14 construct: purchased Carna Biosciences, Inc

FYN(isoform a) = molecular target: T15, FYN(isoform a) (Homo sapiens, UniProt P06241); assay: Off-chip Mobility Shift Assay, kinase inhibition; type: biochemical; settings: at 10 nM; recombinant FYN(isoform a)
T15 construct: purchased Carna Biosciences, Inc

[1] = tested on: battery of selected protein kinases; assay: In vitro screen of a battery of selected protein kinases (summary statement); type: biochemical; settings: BTK, BMX, ABL, ABL(E255K), SRC, ACK, ARG, BLK, DDR2, EPHA, FGR, FMS, FRK, FYN, HCK, LCK, LYN, PDGFRα, PDGFRβ, YES, PIK3CA/PIK3R1, among others

T9 sequence (P07948 whole entry): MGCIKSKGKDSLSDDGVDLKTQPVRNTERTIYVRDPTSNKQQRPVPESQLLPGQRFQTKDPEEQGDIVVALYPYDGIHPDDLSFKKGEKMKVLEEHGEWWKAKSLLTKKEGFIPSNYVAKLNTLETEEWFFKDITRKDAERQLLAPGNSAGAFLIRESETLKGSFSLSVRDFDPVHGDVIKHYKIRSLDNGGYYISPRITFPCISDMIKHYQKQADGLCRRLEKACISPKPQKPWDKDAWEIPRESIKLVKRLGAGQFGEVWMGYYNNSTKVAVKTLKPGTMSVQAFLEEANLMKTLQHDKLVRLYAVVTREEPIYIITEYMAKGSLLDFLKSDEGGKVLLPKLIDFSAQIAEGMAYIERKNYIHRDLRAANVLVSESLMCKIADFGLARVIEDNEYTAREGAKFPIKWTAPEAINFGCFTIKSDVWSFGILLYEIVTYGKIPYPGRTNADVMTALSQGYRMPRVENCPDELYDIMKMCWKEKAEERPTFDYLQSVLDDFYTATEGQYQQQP
T13 sequence (P42684 whole entry): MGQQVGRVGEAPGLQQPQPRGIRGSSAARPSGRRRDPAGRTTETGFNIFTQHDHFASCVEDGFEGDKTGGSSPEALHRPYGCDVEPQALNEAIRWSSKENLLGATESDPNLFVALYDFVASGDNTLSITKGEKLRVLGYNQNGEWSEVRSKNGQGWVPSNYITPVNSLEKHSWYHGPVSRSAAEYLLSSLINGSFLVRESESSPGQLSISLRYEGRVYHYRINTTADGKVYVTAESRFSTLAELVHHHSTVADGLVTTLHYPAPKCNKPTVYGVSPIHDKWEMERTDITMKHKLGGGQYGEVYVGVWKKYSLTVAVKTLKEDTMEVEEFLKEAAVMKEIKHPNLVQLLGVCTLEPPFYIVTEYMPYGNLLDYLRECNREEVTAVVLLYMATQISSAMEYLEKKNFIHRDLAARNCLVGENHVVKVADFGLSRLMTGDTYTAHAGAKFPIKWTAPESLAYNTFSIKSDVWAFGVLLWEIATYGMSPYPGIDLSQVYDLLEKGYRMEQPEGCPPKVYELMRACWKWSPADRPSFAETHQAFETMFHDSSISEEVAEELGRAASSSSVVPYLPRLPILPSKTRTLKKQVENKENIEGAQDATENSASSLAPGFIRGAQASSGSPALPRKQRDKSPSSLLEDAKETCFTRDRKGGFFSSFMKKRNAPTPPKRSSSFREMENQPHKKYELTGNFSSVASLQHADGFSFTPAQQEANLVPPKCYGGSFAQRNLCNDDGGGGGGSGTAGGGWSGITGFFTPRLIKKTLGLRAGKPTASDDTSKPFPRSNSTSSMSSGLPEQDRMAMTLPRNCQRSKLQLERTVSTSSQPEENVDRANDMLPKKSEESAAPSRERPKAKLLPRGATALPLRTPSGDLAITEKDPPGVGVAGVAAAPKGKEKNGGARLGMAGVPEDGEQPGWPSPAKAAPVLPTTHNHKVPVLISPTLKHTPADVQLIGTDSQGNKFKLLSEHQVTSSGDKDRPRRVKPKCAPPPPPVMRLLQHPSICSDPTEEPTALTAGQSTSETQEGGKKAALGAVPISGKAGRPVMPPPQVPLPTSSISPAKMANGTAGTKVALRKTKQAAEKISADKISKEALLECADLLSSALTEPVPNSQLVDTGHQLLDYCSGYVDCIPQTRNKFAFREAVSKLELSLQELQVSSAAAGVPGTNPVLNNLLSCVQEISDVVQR
T14 sequence (P00519 whole entry): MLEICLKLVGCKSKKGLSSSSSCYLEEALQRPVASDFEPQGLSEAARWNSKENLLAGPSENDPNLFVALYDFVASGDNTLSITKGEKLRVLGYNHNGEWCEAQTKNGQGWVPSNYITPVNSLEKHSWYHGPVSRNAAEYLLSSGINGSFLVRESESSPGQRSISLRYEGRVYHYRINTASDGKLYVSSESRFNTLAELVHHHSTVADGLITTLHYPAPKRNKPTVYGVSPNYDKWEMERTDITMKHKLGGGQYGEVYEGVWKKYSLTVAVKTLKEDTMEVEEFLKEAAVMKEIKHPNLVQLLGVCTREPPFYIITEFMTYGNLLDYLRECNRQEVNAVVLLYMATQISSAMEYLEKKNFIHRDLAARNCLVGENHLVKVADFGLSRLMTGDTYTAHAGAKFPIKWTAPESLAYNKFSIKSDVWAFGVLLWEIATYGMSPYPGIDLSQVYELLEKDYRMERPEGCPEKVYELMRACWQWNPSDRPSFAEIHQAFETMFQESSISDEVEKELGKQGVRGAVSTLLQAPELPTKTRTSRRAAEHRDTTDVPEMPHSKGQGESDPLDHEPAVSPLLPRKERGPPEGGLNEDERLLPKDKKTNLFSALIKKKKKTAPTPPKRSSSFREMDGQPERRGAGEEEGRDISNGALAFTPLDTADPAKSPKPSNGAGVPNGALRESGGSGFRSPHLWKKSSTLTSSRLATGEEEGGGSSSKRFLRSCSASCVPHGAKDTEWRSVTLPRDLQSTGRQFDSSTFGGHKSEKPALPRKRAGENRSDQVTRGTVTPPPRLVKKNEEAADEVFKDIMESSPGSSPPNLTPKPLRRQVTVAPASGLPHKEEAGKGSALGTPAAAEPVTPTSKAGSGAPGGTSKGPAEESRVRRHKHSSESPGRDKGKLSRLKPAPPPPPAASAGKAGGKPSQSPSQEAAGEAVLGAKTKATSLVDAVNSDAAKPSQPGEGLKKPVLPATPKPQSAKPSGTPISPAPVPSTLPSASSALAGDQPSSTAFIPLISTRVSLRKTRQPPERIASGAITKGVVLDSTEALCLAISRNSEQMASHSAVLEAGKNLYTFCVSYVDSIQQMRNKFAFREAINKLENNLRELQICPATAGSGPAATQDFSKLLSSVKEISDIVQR
T11 sequence (Q07912 whole entry): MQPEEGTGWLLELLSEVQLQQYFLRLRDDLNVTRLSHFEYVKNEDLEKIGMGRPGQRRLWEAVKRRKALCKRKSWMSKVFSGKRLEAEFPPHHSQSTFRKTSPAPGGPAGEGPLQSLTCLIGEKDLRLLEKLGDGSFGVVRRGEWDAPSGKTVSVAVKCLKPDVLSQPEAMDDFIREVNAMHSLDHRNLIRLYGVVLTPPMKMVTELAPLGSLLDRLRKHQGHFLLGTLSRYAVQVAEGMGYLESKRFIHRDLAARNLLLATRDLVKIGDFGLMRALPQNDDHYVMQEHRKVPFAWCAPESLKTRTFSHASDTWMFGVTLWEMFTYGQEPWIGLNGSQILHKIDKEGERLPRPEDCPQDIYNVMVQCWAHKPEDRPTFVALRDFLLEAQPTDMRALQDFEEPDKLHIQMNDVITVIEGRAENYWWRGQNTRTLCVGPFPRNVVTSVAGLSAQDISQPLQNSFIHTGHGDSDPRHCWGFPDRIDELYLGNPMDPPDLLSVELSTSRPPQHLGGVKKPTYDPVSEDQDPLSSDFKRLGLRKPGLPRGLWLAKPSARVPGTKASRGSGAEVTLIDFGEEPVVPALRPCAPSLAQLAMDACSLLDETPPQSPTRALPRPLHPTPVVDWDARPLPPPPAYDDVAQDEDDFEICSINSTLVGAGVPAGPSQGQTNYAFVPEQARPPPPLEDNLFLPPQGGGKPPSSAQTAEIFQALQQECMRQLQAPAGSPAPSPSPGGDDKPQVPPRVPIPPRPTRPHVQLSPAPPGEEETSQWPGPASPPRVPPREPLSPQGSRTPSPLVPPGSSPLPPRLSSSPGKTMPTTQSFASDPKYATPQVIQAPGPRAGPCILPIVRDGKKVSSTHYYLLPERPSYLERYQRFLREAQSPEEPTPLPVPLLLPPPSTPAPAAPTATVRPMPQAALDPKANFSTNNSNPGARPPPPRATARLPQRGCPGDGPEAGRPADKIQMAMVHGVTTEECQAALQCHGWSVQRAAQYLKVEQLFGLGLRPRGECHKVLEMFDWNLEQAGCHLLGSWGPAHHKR
T8 sequence (P12931 whole entry): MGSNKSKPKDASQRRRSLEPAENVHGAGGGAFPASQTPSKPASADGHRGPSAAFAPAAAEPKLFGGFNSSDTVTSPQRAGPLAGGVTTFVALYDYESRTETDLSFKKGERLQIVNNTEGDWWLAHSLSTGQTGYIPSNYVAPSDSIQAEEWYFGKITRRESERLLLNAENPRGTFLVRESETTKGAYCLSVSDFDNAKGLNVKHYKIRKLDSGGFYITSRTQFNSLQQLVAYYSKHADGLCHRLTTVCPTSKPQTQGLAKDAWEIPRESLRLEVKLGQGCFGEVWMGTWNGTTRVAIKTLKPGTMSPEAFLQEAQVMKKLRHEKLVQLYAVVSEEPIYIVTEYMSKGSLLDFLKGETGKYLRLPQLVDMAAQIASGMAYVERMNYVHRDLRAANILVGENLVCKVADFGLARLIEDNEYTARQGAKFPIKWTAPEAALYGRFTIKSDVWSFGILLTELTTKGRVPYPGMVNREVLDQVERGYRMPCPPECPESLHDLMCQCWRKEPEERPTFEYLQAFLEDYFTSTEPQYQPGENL
T5 sequence (P08631 whole entry): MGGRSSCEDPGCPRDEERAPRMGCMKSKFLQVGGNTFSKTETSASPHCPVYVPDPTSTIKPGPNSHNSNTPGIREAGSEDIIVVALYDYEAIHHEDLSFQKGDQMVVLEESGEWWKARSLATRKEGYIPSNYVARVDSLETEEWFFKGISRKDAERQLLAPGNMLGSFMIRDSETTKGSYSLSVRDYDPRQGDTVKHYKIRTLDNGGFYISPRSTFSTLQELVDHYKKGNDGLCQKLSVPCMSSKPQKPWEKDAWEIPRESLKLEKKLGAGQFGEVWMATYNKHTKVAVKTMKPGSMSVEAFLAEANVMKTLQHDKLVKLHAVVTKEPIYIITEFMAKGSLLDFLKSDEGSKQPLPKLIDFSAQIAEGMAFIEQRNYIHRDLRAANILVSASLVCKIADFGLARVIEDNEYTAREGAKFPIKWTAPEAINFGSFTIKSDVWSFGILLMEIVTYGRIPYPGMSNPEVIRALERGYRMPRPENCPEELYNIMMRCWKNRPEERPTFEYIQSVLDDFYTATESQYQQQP

| Compound | inhibition at 0.01 µM (DDR2) [%] | inhibition at 0.01 µM (PDGFRβ) [%] | inhibition at 0.01 µM (PDGFRα) [%] | inhibition at 0.001 µM (BTK) [%] | inhibition at 0.01 µM (BTK) [%] | inhibition at 0.001 µM (HCK) [%] | inhibition at 0.01 µM (HCK) [%] | inhibition at 0.01 µM (BLK) [%] | inhibition at 0.001 µM (BMX) [%] | inhibition at 0.01 µM (BMX) [%] | inhibition at 0.001 µM (SRC) [%] | inhibition at 0.01 µM (SRC) [%] | inhibition at 0.001 µM (LYNa) [%] | inhibition at 0.01 µM (LYNa) [%] | inhibition at 0.001 µM (LCK) [%] | inhibition at 0.01 µM (LCK) [%] | inhibition at 0.01 µM (ACK) [%] | IC50 (Mino) [nM] | inhibition at 0.01 µM (FMS) [%] | inhibition at 0.01 µM (ARG) [%] | further results |
| --- | --- | --- | --- | --- | --- | --- | --- | --- | --- | --- | --- | --- | --- | --- | --- | --- | --- | --- | --- | --- | --- |
| [2H]c1cc(C)c(NC(=O)c2cnc(Nc3cc(N4CC[C@@H](O)C4)nc(C)n3)s2)c(Cl)c1 [Compound V, N-(2-chloro-4-deutero-6-methylphenyl)-2-[[2-methyl-6-((R)-3-hydroxypyrrolidin-1-yl)pyrimidin-4-yl]amino]thiazole-5-carboxamide] | > 50 | > 50 | > 50 | > 50 | > 50 | > 50 | > 50 | > 50 | > 50 | > 50 | > 50 | > 50 | > 50 | > 50 | > 50 | > 50 | > 50 | < 50 | > 50 | > 50 | inhibition at 0.001 µM (ABL): > 50%; inhibition at 0.01 µM (ABL): > 50%; inhibition at 0.01 µM (FYN(isoform a)): > 50%; activity to inhibit kinases [1]: potent activity |
| [2H]c1cc(C)c(NC(=O)c2cnc(Nc3cc(N4CC[C@H](N)C4)nc(C)n3)s2)c(Cl)c1 [Compound VI, N-(2-chloro-4-dutero-6-methylphenyl)-2-[[2-methyl-6-((S)-3-aminopyrrolidin-1-yl)pyrimidin-4-yl]amino]thiazole-5-carboxamide] | > 50 | > 50 | > 50 | > 50 | > 50 | > 50 | > 50 | > 50 | > 50 | > 50 | > 50 | > 50 | > 50 | > 50 | > 50 | > 50 | > 50 | < 50 | > 50 | > 50 | inhibition at 0.001 µM (ABL): > 50%; inhibition at 0.01 µM (ABL): > 50%; inhibition at 0.01 µM (FYN(isoform a)): > 50%; activity to inhibit kinases [1]: potent activity |
| [2H]c1cc(C)c(NC(=O)c2cnc(Nc3cc(N4CC[C@@H](N)C4)nc(C)n3)s2)c(Cl)c1 [Compound VII, N-(2-chloro-4-deutero-6-methylphenyl)-2-[[2-methyl-6-((R)-3-aminopyrrolidin-1-yl)pyrimidin-4-yl]amino]thiazole-5-carboxamide] | > 50 | > 50 | > 50 | > 50 | > 50 | > 50 | > 50 | > 50 | > 50 | > 50 | > 50 | > 50 | > 50 | > 50 | > 50 | > 50 | > 50 | < 50 | > 50 | > 50 | inhibition at 0.001 µM (ABL): > 50%; inhibition at 0.01 µM (ABL): > 50%; inhibition at 0.01 µM (FYN(isoform a)): > 50%; activity to inhibit kinases [1]: potent activity |
| Cc1nc(Nc2ncc(C(=O)Nc3c(C)cccc3Cl)s2)cc(N2CCCCC2)n1 [Compound VIII, N-(2-chloro-6-methylphenyl)-2-[[2-methyl-6-(piperidin-1-yl)pyrimidin-4-yl]amino]thiazole-5-carboxamide] | > 50 | > 50 | > 50 | > 50 | > 50 | > 50 | > 50 | > 50 | > 50 | > 50 | > 50 | > 50 | > 50 | > 50 | > 50 | > 50 | > 50 | < 50 | > 50 | > 50 | inhibition at 0.001 µM (ABL): > 50%; inhibition at 0.01 µM (ABL): > 50%; inhibition at 0.01 µM (FYN(isoform a)): > 50%; activity to inhibit kinases [1]: potent activity |
| Cc1nc(Nc2ncc(C(=O)Nc3c(C)cccc3Cl)s2)cc(N2CC[C@H](O)C2)n1 [Compound X, N-(2-chloro-6-methylphenyl)-2-[[2-methyl-6-((S)-3-hydroxypyrrolidin-1-yl)pyrimidin-4-yl]amino]thiazole-5-carboxamide] | > 50 | > 50 | > 50 | > 50 | > 50 | > 50 | > 50 | > 50 | > 50 | > 50 | > 50 | > 50 | > 50 | > 50 | > 50 | > 50 | > 50 | < 50 | > 50 | > 50 | inhibition at 0.001 µM (ABL): > 50%; inhibition at 0.01 µM (ABL): > 50%; inhibition at 0.01 µM (FYN(isoform a)): > 50%; activity to inhibit kinases [1]: potent activity |
